Data set [1] has as its system H1299 cells. As to the kind of experiment: AlamarBlue cellular proliferation, fixed concentration model (erlotinib serial dilution +/- miRNA). Format: cell-based. The conditions noted are these: Homo sapiens. For orientation: Alamar Blue is a resazurin reagent that responds to reducing activity.
For data set [2], the system named is A549 cells. As to the kind of experiment: AlamarBlue cellular proliferation, matrix of erlotinib-miR-34a ratios. As to conditions: for concentration required as single agent to induce ~80% cancer cell inhibition: A549, actual data points. Format: cell-based, Human. Here is the method: (§1) Each data point was performed in triplicates.
Levels of cancer cell inhibition, CI and DRI values were determined for each combination and graphed in CI plots, isobolograms and curve-shift diagrams.

Data set [3] has as its system Hep3B, C3A, HepG2 and Huh7. As to the kind of experiment: AlamarBlue cellular proliferation, single agents and fixed ratio method in hepatocellular carcinoma cells. Format: cell-based. The conditions noted are these: 72 h, read-out: IC50 of erlotinib alone, 3 days. Here is the method:
as §1
Front Biosci (Elite Ed) 2: 241-9. […] Id.

The subject of data set [4] is HepG2. As to the kind of experiment: AlamarBlue cellular proliferation, isobologram of erlotinib with miR-34a. Format: cell-based. As to the method: as §1
The test system of data set [5] is H1299. As to conditions: H1299 (resistant); reported in the scientific literature; cited from earlier work.
The test system of data set [6] is H460. The conditions noted are these: H460 (resistant); reported in the scientific literature; cited from earlier work.
Data set [7] concerns H460. As to the kind of experiment: cells. The conditions noted are these: Homo sapiens, NCI-H460, 72 h.
Data set [8] concerns NSCLC. The conditions noted are these: patients with NSCLC; cited from earlier work.
Data set [9] has as its system breast cancer cell lines BT-549, MCF-7, MDA-MB-231, T47D. As to the kind of experiment: AlamarBlue cellular proliferation, lapatinib and miR-Rx34 combination index. The conditions noted are these: ~IC50 ratio. Format: cell-based, human. As to the method: The human breast cancer cell lines BT-549, T47D, MDA-MD-231 and MCF-7 (from ATCC) were used to evaluate the combinatorial effects of mir-Rx34 and lapatinib. Lapatinib was purchased from LC Laboratories (Woburn, Mass.).
The combination studies were carried out at ˜IC50 ratio of lapatinib and miR-Rx34 (ratio=IC50 lapatinib/IC50 miR-Rx34). […] The ratios of lapatinib/miR-Rx34a are 4000 in BT-549, 3333.3 in MDA-MD-231, 5000 in MCF-7 and 6000 in T47D. Cells were reversed transfected with miR-Rx34a, lapatinib were added 3 days post transfection, and cell proliferation were measured 3 days post lapatinib addition by AlamarBlue.
Combinations that are considered synergistic and have clinical value are those with a low CI value (<0.6) at maximal cancer cell inhibition. […] Symbols represent CI values derived from actual data points.

For data set [10], the system named is A549 and H460. The conditions noted are these: cited from earlier work.

Read-outs that look alike come from different tables or passages of the source.

In general, IC50 refers to the point on the concentration scale where inhibition reaches its midpoint. Turning to `C#Cc1cccc(Nc2ncnc3cc(OCCOC)c(OCCOC)cc23)c1` [Erlotinib, N-(3-ethynylphenyl)-6,7-bis(2-methoxyethoxy)-4-quinazolinamine], the IC50 was 11 µM in data set [1] (NCI-H1299, 72 h, read-out: IC50 of erlotinib alone, H1299 cells, 3 days); 21.5 µM in data set [1] (NCI-H1299, 72 h, read-out: IC50); 3 µM in data set [1] (NCI-H1299, read-out: erlotinib IC50 in combination with miR-34a, H1299 cells, 0.3 nM miR-34a); at least 25 µM in [3]; 8.6 to 38 µM in data set [5]; 8 to 24 µM in data set [6]. For the same compound, the 50% inhibitory concentration (IC50) in data set [7] came out at 26.3 µM. Further, in data set [2], the “concentration required as single agent to induce ~80% cancer cell inhibition” value was found to be 100 µM. The “erlotinib needed to induce ~80% inhibition in combination” value in [2] (A549, used with 12 nM miR-34a) was 2.56 µM. Also, in [2] (A549, ~80% inhibition, with 12 nM miR-34a), the “reduction of the dose requirement of erlotinib” value is given as around 40 fold. In addition, the “erlotinib concentration in combination with miR-34a to inhibit cancer cells by 50%” value in data set [4] (HepG2) was found to be 2 µM. Besides, in data set [4] (HepG2, 50% inhibition), the “lowering of erlotinib dose compared to its single use” value came to 75 fold. The “extension of overall patient survival” value in data set [8] is around 2 months.

As to `COc1cc2ncnc(Nc3ccc(F)c(Cl)c3)c2cc1OCCCN1CCOCC1` [gefitinib], in [8], the “extension of overall patient survival” value is around 2 months.

Consider “miR-34a: Synthetic miR-34a mimic; UGGCAGUGUCUUAGCUGGUUGUU, SEQ ID NO: 1 (chemistry not given here)”, for which the “concentration required as single agent to induce ~80% cancer cell inhibition” value in [2] was 0.03 µM. In addition, the “interaction with lapatinib (combination index)” value in data set [9] is on record as “synergized with lapatinib”.

For the compound “miR-126: microRNA UCGUACCGUGAGUAAUAAUGC, SEQ ID NO: 3 (chemistry not given here)”, the “reduction of gefitinib IC50” value in [10] was around 7 fold.
